# Laboratory results reported in patent US20250339569A1, “CARBONIC ANHYDRASE IX LIGANDS” (priority 2021, published 2025).
# Where two headings read alike, the source gives them in different places.
# Key:
# [1] = Dose range finding study by intravenous route with toxicokinetics; format: in vivo, beagle dogs; details: for Dose-normalized AUClast: AUClast divided by dose in μg/kg; for clearance / half-life / Vd / AUC(0-t) / level at […]: male, beagle, iv, mean n = 2; for clearance / half-life / Vd: dog, plasma; for Vd: read-out: Vss; for AUC(0-t) / level at […]: dog plasma; for level at […]: read-out: C15 min
# Protocol: The following parameters and endpoints were evaluated: mortality, clinical observations, body weights, food consumption, local reactions, clinical pathology parameters (hematology, coagulation, and clinical chemistry), organ weights, and macroscopic examinations. Both animals were sampled for toxicokinetics (TK) on each dosing occasion (i.e., on day 1, day 5, day 9 and day 13) at: pre-dose, 15 min, 30 min, 1 h, 6 h and 24 h. Blood samples were collected in K2EDTA tubes. Plasma was prepared by centrifugation (2500 g for 10 minutes, +4° C.) within 1 hour after collection, and then frozen within 1 hour after centrifugation and stored at −80° C. […] Chromatographic separation was achieved using a Waters Acquity UPLC system with a Waters Acquity HSS T3 C18 2.1×50 mm, 1.8 μm column. Chromatography was conducted at 50° C. at a flow rate of 0.7 mL/min using a mobile phase consisting of A: acetonitrile, and B: 1% formic acid in water, according to the following linear gradient: 0 to 0.1 min: 90% B; 0.1 to 4.1 min: from 90% B to 74% B; 4.1 to 4.2 min: from 74% B to 5% B; 4.2 to 4.6 min: 5% B; 4.6 to 4.7 min: from 5% B to 90% B; 4.7-5.1 min; 90% B. Detection was performed using a Sciex API6600 TOF mass spectrometer. Toxicokinetic parameters were estimated from concentration-time data using Phoenix pharmacokinetic software (version 6.4, Certara L. P.). A non-compartmental approach consistent with the bolus intravenous injection was used for parameter estimation.
# [2] = Pharmacokinetic characterization in healthy dogs; format: in vivo, beagle dogs; details: dog; for AUC(0-inf) / Cmax / clearance / half-life / Vd / CL renal: male, beagle, iv; for AUC(0-inf) / Cmax / clearance / half-life / Vd: plasma; for half-life: read-out: terminal half-life (T1/2) (converted); for Vd: read-out: volume of distribution; for CL renal: urine and plasma, read-out: estimated renal clearance
# Protocol: The pharmacokinetics of DPI-4452 after a single intravenous (i.v.) dose was investigated in healthy dogs. […] Plasma and urine samples collected after dosing were analyzed using a LC-HRMS (liquid chromatography coupled with high-resolution mass spectrometry) assay method. Concentration values were used for pharmacokinetic calculations.
# DPI 4452 was formulated in 0.1 M HEPES pH 7.0 at the final concentrations of 0.05 and 0.4 mg/mL for dosing at 0.1 and 0.8 mg/kg, respectively. Male beagle dogs (3 animals per dose level; overall 8.9 to 12.4 kg body weight) were administered intravenously (bolus) in a 2 mL/kg dosing volume. Blood samples were collected in K2EDTA tubes at 5 min, 15 min, 30 min, 1 h, 2 h, 4 h, 6 h, 24 h, and urine was collected over 24 hours post dose. The blood samples were kept on wet ice until plasma separation by centrifugation within 60 min after sampling. The plasma samples were transferred into plastic tubes, frozen and stored at −80° C. until analysis.
# Plasma and urine samples were analyzed by […] after solid phase extraction, using DPI-4501 as internal standard. Chromatographic separation was run on a Waters Acquity HSS T3 C18 2.1×50 mm, 1.8 μm column. Detection was achieved on a Sciex API6600 TOF mass spectrometer. The lower limit of quantification was 2.00 ng/mL in urine and plasma.
# The NCA pharmacokinetic analysis of plasma concentration data was conducted using Phoenix WinNonlin 6.3 software. Nominal doses were used for all animals. The terminal phase half-life (T1/2) was calculated by least-squares regression analysis of the terminal linear part of the log concentration-time curve. The area under the plasma concentration-time curve (AUC) was determined with the linear trapezoidal rule for increasing values and log trapezoidal rule for decreasing values up to the last measurable concentration.
# human CAIX = human CAIX (Homo sapiens, UniProt Q16790); assay: In vitro SPR binding assay of DPI-4452, natLu-DPI-4452 and natGa-DPI-4452 to CAIX (anti-human Fc capture); design: purchased SinoBliological (Sino Biological) 10107-H02H
# Protocol: Surface Plasmon Resonance (SPR) studies were performed on a Biacore™ T200 using a ligand capture approach. Basically, anti-human Fc antibodies were immobilized on the surface of a sensor chip and CAIX was captured on the functionalized surface via its Fc Tag.
# Then, each compound was injected at increasing concentrations on the captured CAIX in order to measure the in real-time interaction of the compound to its target (i.e. the captured CAIX). The in real-time monitoring of the association and dissociation of the interaction gives access to the interaction kinetics parameters (i.e. the association and dissociation rate constants and the resulting affinity constants).
# • A series S CM5 sensor chip was used (Cytiva). • All reagents used for the immobilization procedure were part of the Amine Coupling Kit, type 2 and/or the Human Antibody Capture Kit (Cytiva). The running buffer (HBS-EP+) was prepared by 10-fold dilution of the stock HBS-EP+ 10× solution (Cytiva). • Anti-human Fc antibodies stock solution (0.5 mg/mL in 0.15 M NaCl) was diluted in 10 mM sodium acetate pH 5.0 to a final concentration of 25 μg/mL directly into a plastic vial 7 mm. • Amine coupling reagents were transferred into plastic vials 7 mm as follow: • 95 μL of 0.4 M 1-ethyl-3-(3-dimethylaminopropyl)carbodiimide (EDC). • 95 μL of 0.1 M N-hydroxysuccinimide (NHS). • An empty plastic vial 7 mm was added in the Biacore™ sample rack for mixing. • 150 μL of 1 M ethamolamine-HCl, pH 8.5. • Plastic vials were closed with rubber caps and the sample rack was inserted into the Biacore™ T200 sample compartment. • The Biacore™ T200 Amine Wizard was used to immobilize the anti-Human Fc antibodies on the four flow-cells of a series S CM5 sensor chip simultaneously with defined contact time of 360 seconds and flow-rate of 5 μL/min. • The immobilization procedure was performed at 25° C., following Cytiva's recommendations, as described in Table 23.
# This procedure allowed to reach immobilization levels between 6000 and 9000 RU of anti-human Fc antibodies on the sensor chip surface.
# • CAIX (Sino Biological, 10107-H02H) stock solution was prepared from lyophilized material reconstituted with deionized water to a concentration of 0.25 μg/mL (3.69 μM), following the supplier recommendations. • CAIX working solution was obtained after dilution of CAIX stock solution with PBS-P+1×, 0.1% DMSO to a final concentration of 200 nM directly in a Biacore™ plastic vial.
# • For each measurement, the raw surface plasmon resonance response (RU) was plotted against time (s) as a sensorgram using the Biacore™ T200 Control Software. • Raw data were corrected by double referencing with subtraction of the signal of both the reference flow-cell and the blank cycle. • The association and dissociation rate constants (ka and kd, respectively), as well as the dissociation constant KD and dissociation half-life t1/2 were determined from the corrected sensorgrams by fitting the data to a 1:1 Langmuir binding model with the Biacore™ T200 evaluation software.
smiles,measurement,setting,value
"CC(C)C[C@@H]1NC(=O)[C@H](Cc2cccc(NC(=O)CCCS(N)(=O)=O)c2)NC(=O)[C@H](CC(=O)O)NC(=O)[C@H]2CCCN2C(=O)[C@H](CCC(=O)O)NC(=O)[C@@H](NC(=O)[C@H](CCC(N)=O)NC(=O)CN2CCN(C(=O)CN3CCN(CC(=O)O)CCN(CC(=O)O)CCN(CC(=O)O)CC3)CC2)CSCc2cccc(c2)CSC[C@@H](C(N)=O)NC(=O)[C@H](CO)NC(=O)[C@H](Cc2c[nH]c3ccccc23)NC(=O)[C@H]([C@@H](C)O)NC1=O [DPI-4452, DOTA-PPAc-Gln-[Cys(3MeBn)-Glu-pro-Asp-Af3(Cpsu)-Leu-Thr-Trp-Ser-Cys]-NH2]",Dose-normalized AUClast,"[1]; Day 1, […] i.v.",1.36
same,Dose-normalized AUClast,"[1]; Day 5, 0.08 mg/kg i.v.",1.46
same,Dose-normalized AUClast,"[1]; Day 9, 0.4 mg/kg i.v.",2.31
same,Dose-normalized AUClast,"[1]; Day 13, 0.8 mg/kg i.v.",4.42
same,dose proportionality of exposure,"[1]; male beagle dogs, 25 to 800 μg/kg i.v.",exposure increased more than dose-proportionally
same,tolerability,"[1]; male beagle dogs, i.v. bolus, ascending 25, 80, 400, 800 μg/kg/day",well tolerated systemically and locally
same,clearance,"[1]; Day 1, 0.025 mg/kg i.v.",11.7 mL/min/kg
same,half-life,"[1]; Day 1, 0.025 mg/kg i.v.",15 min
same,Vd,"[1]; Day 1, 0.025 mg/kg i.v.",0.22 L/kg
same,clearance,"[1]; Day 9, 0.4 mg/kg i.v.",6.83 mL/min/kg
same,half-life,"[1]; Day 9, 0.4 mg/kg i.v.",29.4 min
same,Vd,"[1]; Day 9, 0.4 mg/kg i.v.",0.24 L/kg
same,clearance,"[1]; Day 13, 0.8 mg/kg i.v.",3.52 mL/min/kg
same,half-life,"[1]; Day 13, 0.8 mg/kg i.v.",52.8 min
same,Vd,"[1]; Day 13, 0.8 mg/kg i.v.",0.32 L/kg
same,AUC(0-t),"[1]; Day 1, 0.025 mg/kg i.v.",34 ng·h/mL
same,level at […],"[1]; Day 1, 0.025 mg/kg i.v.",46.8 ng/mL
same,AUC(0-t),"[1]; Day 5, 0.08 mg/kg i.v.",117 ng·h/mL
same,level at […],"[1]; Day 5, 0.08 mg/kg i.v.",156 ng/mL
same,AUC(0-t),"[1]; Day 9, 0.4 mg/kg i.v.",926 ng·h/mL
same,level at […],"[1]; Day 9, 0.4 mg/kg i.v.",880 ng/mL
same,AUC(0-t),"[1]; Day 13, 0.8 mg/kg i.v.",3530 ng·h/mL
same,level at […],"[1]; Day 13, 0.8 mg/kg i.v.",2000 ng/mL
same,time up to which plasma concentration was quantifiable,[2]; i.v. 0.1 mg/kg,up to 2 h
same,time up to which plasma concentration was quantifiable,[2]; i.v. 0.8 mg/kg,≤ 4 h
same,AUC(0-inf),[2]; i.v. 0.1 mg/kg,133 ng·h/mL
same,Cmax,[2]; i.v. 0.1 mg/kg,377 ng/mL
same,clearance,[2]; i.v. 0.1 mg/kg,12.7 mL/min/kg
same,half-life,[2]; i.v. 0.1 mg/kg,22.8 min
same,Vd,[2]; i.v. 0.1 mg/kg,0.26 L/kg
same,AUC(0-inf),[2]; i.v. 0.8 mg/kg,1760 ng·h/mL
same,Cmax,[2]; i.v. 0.8 mg/kg,4430 ng/mL
same,clearance,[2]; i.v. 0.8 mg/kg,7.6 mL/min/kg
same,half-life,[2]; i.v. 0.8 mg/kg,28.8 min
same,Vd,[2]; i.v. 0.8 mg/kg,0.19 L/kg
same,CL renal,[2]; i.v. 0.1 mg/kg,0.0344 mL/min/kg
same,CL renal,[2]; i.v. 0.8 mg/kg,0.0114 mL/min/kg
same,affinity of binding to CAIX,human CAIX; SPR,subnanomolar affinity
same,t1/2,human CAIX; SPR dissociation half-life,99 min
same,mean dissociation half-life,"human CAIX; SPR, 25°C",99 min
